The text below walks through data of ChEMBL document CHEMBL1909046, “DrugMatrix in vitro pharmacology data”.

SMILES strings stand for the structures.

Cytochrome P450 3A4, sequence (P08684 whole entry): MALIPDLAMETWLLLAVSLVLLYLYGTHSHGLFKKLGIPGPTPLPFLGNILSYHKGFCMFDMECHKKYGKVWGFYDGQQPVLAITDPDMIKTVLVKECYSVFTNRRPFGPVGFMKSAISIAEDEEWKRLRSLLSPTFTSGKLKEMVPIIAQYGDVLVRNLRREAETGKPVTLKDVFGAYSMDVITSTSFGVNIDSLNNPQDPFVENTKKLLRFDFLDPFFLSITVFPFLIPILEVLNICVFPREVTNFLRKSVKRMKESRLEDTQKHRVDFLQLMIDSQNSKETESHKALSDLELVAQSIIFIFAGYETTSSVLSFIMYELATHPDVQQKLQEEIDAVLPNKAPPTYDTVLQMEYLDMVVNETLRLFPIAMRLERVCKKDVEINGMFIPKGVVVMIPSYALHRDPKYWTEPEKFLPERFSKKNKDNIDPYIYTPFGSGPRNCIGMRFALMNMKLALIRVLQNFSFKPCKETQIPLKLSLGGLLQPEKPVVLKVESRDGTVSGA

The first series addresses T1, B2 bradykinin receptor (Homo sapiens, UniProt P30411).
T1 sequence (P30411 whole entry): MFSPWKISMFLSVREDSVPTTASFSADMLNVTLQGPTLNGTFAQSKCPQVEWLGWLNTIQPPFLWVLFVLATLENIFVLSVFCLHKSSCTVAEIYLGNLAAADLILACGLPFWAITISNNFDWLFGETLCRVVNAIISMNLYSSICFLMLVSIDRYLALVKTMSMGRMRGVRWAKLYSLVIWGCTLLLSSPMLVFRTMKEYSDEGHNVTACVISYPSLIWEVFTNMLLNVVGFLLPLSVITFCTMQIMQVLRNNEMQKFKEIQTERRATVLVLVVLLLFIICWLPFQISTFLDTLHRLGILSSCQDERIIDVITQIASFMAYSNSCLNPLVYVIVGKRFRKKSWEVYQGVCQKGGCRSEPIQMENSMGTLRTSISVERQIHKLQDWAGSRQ
Assay: not given
The format is cell membranes, Membrane. The conditions noted are these: chem-1.
Take `COCCOC(=O)C1=C(C)NC(C)=C(C(=O)OC(C)C)C1c1cccc([N+](=O)[O-])c1` (stereo not drawn) [NIMODIPINE]: the IC50 result was “Not Active”.
`O=C(c1ccc(OCCN2CCCCC2)cc1)c1c(-c2ccc(O)cc2)sc2cc(O)ccc12` [RALOXIFENE]: the IC50 entry is on record as “Not Active”.
The same measure, in the same setting: to `CC(C)c1nc(CN(C)C(=O)N[C@H](C(=O)N[C@@H](Cc2ccccc2)C[C@H](O)[C@H](Cc2ccccc2)NC(=O)OCc2cncs2)C(C)C)cs1` [RITONAVIR] belongs “Not Active”.

The next series concerns the target T2, Muscarinic acetylcholine receptor M2 (Homo sapiens, UniProt P08172). Also: in other assays of this panel Not Active means under 50% inhibition at 10 µM.
T2 sequence (P08172 whole entry): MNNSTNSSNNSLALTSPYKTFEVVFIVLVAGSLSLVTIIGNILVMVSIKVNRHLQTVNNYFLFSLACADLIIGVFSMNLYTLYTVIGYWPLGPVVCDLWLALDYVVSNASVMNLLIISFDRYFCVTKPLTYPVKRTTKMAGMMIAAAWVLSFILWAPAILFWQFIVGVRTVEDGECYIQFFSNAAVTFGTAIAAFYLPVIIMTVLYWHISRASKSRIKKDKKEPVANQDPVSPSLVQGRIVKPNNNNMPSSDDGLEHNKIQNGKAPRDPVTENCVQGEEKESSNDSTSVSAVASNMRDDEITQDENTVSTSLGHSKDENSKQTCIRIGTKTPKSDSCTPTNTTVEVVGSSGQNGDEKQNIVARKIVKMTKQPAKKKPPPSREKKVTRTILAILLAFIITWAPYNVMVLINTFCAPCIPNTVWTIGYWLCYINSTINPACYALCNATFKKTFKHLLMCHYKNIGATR
Assay: not given
In kind it is cell membranes, CHO-K1, Membrane. The conditions noted are these: cho-k1.
On to `COCCOC(=O)C1=C(C)NC(C)=C(C(=O)OC(C)C)C1c1cccc([N+](=O)[O-])c1` (stereo not drawn) [NIMODIPINE], for which the IC50 entry is reported as “Not Active”.
On the same count and under the same terms, in the case of `O=C(c1ccc(OCCN2CCCCC2)cc1)c1c(-c2ccc(O)cc2)sc2cc(O)ccc12` [RALOXIFENE] it was “Not Active”; in that of `CC(C)c1nc(CN(C)C(=O)N[C@H](C(=O)N[C@@H](Cc2ccccc2)C[C@H](O)[C@H](Cc2ccccc2)NC(=O)OCc2cncs2)C(C)C)cs1` [RITONAVIR], “Not Active”.

The target of a further series is T3, 5-hydroxytryptamine receptor 1A (Rattus norvegicus, UniProt P19327). Also: in other assays of this panel Not Active means under 50% inhibition at 10 µM.
T3 sequence (P19327 whole entry): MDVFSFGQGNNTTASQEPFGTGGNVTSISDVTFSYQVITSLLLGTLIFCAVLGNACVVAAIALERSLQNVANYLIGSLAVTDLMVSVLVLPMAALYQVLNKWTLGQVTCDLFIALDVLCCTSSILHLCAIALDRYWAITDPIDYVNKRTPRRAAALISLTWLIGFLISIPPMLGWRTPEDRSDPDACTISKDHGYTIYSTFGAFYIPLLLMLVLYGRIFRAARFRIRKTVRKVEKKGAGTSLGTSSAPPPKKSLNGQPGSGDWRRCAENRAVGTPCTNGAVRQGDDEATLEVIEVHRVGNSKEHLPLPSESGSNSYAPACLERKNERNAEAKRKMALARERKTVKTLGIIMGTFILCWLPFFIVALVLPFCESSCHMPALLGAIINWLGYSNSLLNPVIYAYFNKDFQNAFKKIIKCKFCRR
Assay: not given
In kind it is cell membranes, Membrane. The conditions noted are these: cho-k1.
Turning to `COCCOC(=O)C1=C(C)NC(C)=C(C(=O)OC(C)C)C1c1cccc([N+](=O)[O-])c1` (stereo not drawn) [NIMODIPINE], the IC50 entry is recorded as “Not Active”.
On the same count and under the same terms, to `O=C(c1ccc(OCCN2CCCCC2)cc1)c1c(-c2ccc(O)cc2)sc2cc(O)ccc12` [RALOXIFENE] belongs “Not Active”; to `CC(C)c1nc(CN(C)C(=O)N[C@H](C(=O)N[C@@H](Cc2ccccc2)C[C@H](O)[C@H](Cc2ccccc2)NC(=O)OCc2cncs2)C(C)C)cs1` [RITONAVIR], “Not Active”.

The target of another series is T4, Interstitial collagenase (Homo sapiens, UniProt P03956).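 Also: MMP-1 enzyme inhibition assay using a peptide substrate; in other assays of this panel Not Active means under 50% inhibition at 10 µM.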
T4 sequence (P03956 whole entry): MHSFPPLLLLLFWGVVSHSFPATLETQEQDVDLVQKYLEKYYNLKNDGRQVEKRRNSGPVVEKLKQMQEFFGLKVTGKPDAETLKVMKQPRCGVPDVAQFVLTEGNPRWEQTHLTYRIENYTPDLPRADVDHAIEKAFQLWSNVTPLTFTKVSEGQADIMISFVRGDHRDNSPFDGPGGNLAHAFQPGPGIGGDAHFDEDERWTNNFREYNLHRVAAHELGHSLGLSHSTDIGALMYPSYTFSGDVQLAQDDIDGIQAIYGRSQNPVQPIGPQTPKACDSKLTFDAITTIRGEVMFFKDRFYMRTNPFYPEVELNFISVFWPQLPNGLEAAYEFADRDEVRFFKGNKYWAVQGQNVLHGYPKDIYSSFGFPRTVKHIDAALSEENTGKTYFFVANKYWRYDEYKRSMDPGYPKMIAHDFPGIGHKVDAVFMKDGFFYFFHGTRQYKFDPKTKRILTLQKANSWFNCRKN
In words: biochemical. The format is tissue-based, Rheumatoid synovial fibroblasts.
Details: not given
Consider `COCCOC(=O)C1=C(C)NC(C)=C(C(=O)OC(C)C)C1c1cccc([N+](=O)[O-])c1` (stereo not drawn) [NIMODIPINE], for which the IC50 entry is on record as “Not Active”.
With `O=C(c1ccc(OCCN2CCCCC2)cc1)c1c(-c2ccc(O)cc2)sc2cc(O)ccc12` [RALOXIFENE], the IC50 result is listed as “Not Active”.
Still for that read-out and setting: to `CC(C)c1nc(CN(C)C(=O)N[C@H](C(=O)N[C@@H](Cc2ccccc2)C[C@H](O)[C@H](Cc2ccccc2)NC(=O)OCc2cncs2)C(C)C)cs1` [RITONAVIR] belongs “Not Active”.

For another series, the target named is T5, Adenosine receptor A1 (Homo sapiens, UniProt P30542).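 Also: radioligand binding assay at the adenosine A1 receptor, with DPCPX serving as the labelled ligand; in other assays of this panel Not Active means under 50% inhibition at 10 µM.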
T5 sequence (P30542 whole entry): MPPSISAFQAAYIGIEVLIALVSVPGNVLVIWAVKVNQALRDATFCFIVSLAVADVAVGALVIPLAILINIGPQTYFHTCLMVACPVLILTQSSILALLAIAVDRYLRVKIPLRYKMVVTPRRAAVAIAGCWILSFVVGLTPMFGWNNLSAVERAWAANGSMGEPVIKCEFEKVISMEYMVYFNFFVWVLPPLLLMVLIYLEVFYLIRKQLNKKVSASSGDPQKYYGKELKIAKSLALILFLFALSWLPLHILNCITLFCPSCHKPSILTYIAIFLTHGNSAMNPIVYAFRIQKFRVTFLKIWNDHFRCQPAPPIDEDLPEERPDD
Assay: not given
In kind it is cell membranes, Membrane. The following applies: cho.
Take `COCCOC(=O)C1=C(C)NC(C)=C(C(=O)OC(C)C)C1c1cccc([N+](=O)[O-])c1` (stereo not drawn) [NIMODIPINE]: the IC50 entry is reported as “Not Active”.
Same read-out and setting: in the case of `O=C(c1ccc(OCCN2CCCCC2)cc1)c1c(-c2ccc(O)cc2)sc2cc(O)ccc12` [RALOXIFENE] it was “Not Active”; in that of `CC(C)c1nc(CN(C)C(=O)N[C@H](C(=O)N[C@@H](Cc2ccccc2)C[C@H](O)[C@H](Cc2ccccc2)NC(=O)OCc2cncs2)C(C)C)cs1` [RITONAVIR], “Not Active”.

Another series has as its target Cytochrome P450 3A4 (Homo sapiens, UniProt P08684). Also: in other assays of this panel Not Active means under 50% inhibition at 10 µM.
Assay: not given
The following applies: bti-tn-5b1-4.
`O=C(c1ccc(OCCN2CCCCC2)cc1)c1c(-c2ccc(O)cc2)sc2cc(O)ccc12` [RALOXIFENE]: the IC50 entry is “Not Active” and the Ki result is listed as “Not Active”.

Test system in the next series: not listed separately
As to the kind of experiment: DRUGMATRIX: Tumor Necrosis Factor (TNF), Non-Selective radioligand binding (ligand: [125I] TNF-alpha). In kind it is cell membranes, Membrane. The following applies: u-937; Not Active = under 50% inhibition at 10 µM.
`COCCOC(=O)C1=C(C)NC(C)=C(C(=O)OC(C)C)C1c1cccc([N+](=O)[O-])c1` (stereo not drawn) [NIMODIPINE]: the IC50 result was “Not Active” and the Ki result is reported as “Not Active”.
Turning to `O=C(c1ccc(OCCN2CCCCC2)cc1)c1c(-c2ccc(O)cc2)sc2cc(O)ccc12` [RALOXIFENE], the IC50 entry is “Not Active” and the Ki result is “Not Active”.
For `CC(C)c1nc(CN(C)C(=O)N[C@H](C(=O)N[C@@H](Cc2ccccc2)C[C@H](O)[C@H](Cc2ccccc2)NC(=O)OCc2cncs2)C(C)C)cs1` [RITONAVIR], the IC50 entry is reported as “Not Active” and the Ki result is “Not Active”.

The next series deals with Sodium-dependent noradrenaline transporter (Homo sapiens, UniProt P23975). In words: DRUGMATRIX: Norepinephrine Transporter radioligand binding (ligand: [125I] RTI-55). In kind it is cell membranes, MDCK, Membrane. The conditions noted are these: mdck; Not Active = under 50% inhibition at 10 µM.
Sodium-dependent noradrenaline transporter, sequence (P23975 whole entry): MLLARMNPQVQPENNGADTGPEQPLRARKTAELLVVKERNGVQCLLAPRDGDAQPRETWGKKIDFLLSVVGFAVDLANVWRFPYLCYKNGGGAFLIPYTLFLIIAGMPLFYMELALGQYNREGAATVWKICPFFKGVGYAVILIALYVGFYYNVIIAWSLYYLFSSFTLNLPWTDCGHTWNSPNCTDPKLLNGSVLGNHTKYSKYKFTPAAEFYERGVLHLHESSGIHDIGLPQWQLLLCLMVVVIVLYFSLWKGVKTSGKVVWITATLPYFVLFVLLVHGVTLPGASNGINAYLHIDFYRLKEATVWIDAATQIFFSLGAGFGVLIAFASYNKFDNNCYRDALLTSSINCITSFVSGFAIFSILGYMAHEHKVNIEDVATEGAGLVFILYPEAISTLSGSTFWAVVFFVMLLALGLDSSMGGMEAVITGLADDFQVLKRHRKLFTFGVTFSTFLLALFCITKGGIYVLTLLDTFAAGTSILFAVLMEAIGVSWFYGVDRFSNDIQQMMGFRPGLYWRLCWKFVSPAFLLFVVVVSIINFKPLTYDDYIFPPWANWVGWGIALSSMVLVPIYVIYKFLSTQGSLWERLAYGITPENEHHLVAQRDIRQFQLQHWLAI
Consider `COCCOC(=O)C1=C(C)NC(C)=C(C(=O)OC(C)C)C1c1cccc([N+](=O)[O-])c1` (stereo not drawn) [NIMODIPINE], for which the IC50 entry is “Not Active”.
In the case of `CC(C)c1nc(CN(C)C(=O)N[C@H](C(=O)N[C@@H](Cc2ccccc2)C[C@H](O)[C@H](Cc2ccccc2)NC(=O)OCc2cncs2)C(C)C)cs1` [RITONAVIR], the IC50 entry is given as “Not Active”.

A further series has as its target T6, Caspase-1 (Homo sapiens, UniProt P29466).
T6 sequence (P29466 whole entry): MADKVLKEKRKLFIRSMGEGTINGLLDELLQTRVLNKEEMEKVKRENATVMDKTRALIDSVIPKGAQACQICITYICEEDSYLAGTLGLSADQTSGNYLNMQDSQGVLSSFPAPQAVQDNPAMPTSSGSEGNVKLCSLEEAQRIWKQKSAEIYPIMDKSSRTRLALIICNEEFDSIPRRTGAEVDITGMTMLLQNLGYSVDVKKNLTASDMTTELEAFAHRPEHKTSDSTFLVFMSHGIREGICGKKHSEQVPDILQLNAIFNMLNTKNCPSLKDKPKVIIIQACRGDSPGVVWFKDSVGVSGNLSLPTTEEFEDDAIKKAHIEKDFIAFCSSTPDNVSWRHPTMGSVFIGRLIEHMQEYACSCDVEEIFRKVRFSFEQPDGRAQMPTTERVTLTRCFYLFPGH
Assay: not given
Further details: species or system Escherichia coli.
Details: not given
As for `COCCOC(=O)C1=C(C)NC(C)=C(C(=O)OC(C)C)C1c1cccc([N+](=O)[O-])c1` (stereo not drawn) [NIMODIPINE], the IC50 result was “Not Active”.
Regarding `O=C(c1ccc(OCCN2CCCCC2)cc1)c1c(-c2ccc(O)cc2)sc2cc(O)ccc12` [RALOXIFENE], the IC50 result is given as “Not Active”.
Still for that read-out and setting: in the case of `CC(C)c1nc(CN(C)C(=O)N[C@H](C(=O)N[C@@H](Cc2ccccc2)C[C@H](O)[C@H](Cc2ccccc2)NC(=O)OCc2cncs2)C(C)C)cs1` [RITONAVIR] it was “Not Active”.
